Test results published in patent publication US12178815B2, “Regimens for treating HIV infections and aids” (priority 2017, dated 2024).
Values after ≈ are worked out from the molar mass of the structure shown. Read-outs that look alike come from different tables or passages of the source.

What was measured:
[1] = LATTE-2 plasma pharmacokinetics (trough concentrations); assay type: in vivo, human; conditions: for C0 relative to in vitro PA-IC90 / C0 at 48 week: Week 48; for C0 at 48 week: human, plasma, im
Method: Pharmacokinetic plasma concentrations following long-acting cabotegravir+rilpivirine administration are summarized using evaluable data that met sample collection window criteria, excluding samples affected by dosing errors (wrong dose) or oral bridging. Sampling windows for intramuscular dosing were set relative to the previous injection as follows: ±0.5 hours for two-hour postdose samples; ±one day for one-week postinjection visits; ±two days for predose samples in the four-week group, Weeks 4 and 8 cabotegravir samples in the eight-week group, and midcycle concentrations four weeks postinjection in the eight-week group; and ±four days for predose samples in the eight-week group (except for Weeks 4 and 8 cabotegravir samples, as described earlier).

[2] = test system: virus with reverse transcriptase mutations K103N, E138G, and K238T and integrase mutation Q148R; test: Phenotypic resistance of virus from subject with protocol-defined virologic failure; set-up: species or system HIV-1; conditions: eight-week group subject, RT K103N
[3] = test system: virus with mixture at integrase codon 269 (R269R/G); test: Susceptibility of virus from subject with protocol-defined virologic failure (integrase R269R/G); set-up: species or system HIV-1; conditions: eight-week group subject
wild-type HIV-1 = test: in vitro protein-adjusted 90% inhibitory concentration (PA-IC90); assay type: cell-based; conditions: against wild-type HIV-1

With `C[C@H]1CO[C@@H]2Cn3cc(C(=O)NCc4ccc(F)cc4F)c(=O)c(O)c3C(=O)N12` [cabotegravir, (3S,11aR)—N-[(2,4-difluorophenyl)methyl]-2,3,5,7,11,11a-hexahydro-6-hydroxy-3-methyl-5,7-dioxo-oxazolo[3,2-a]pyrido[1,2-d] pyrazine-8-carboxamide] the “C0 relative to in vitro PA-IC90” value ([1]; eight-week IM LA) was 9 fold, the “C0 relative to in vitro PA-IC90” value ([1]; four-week IM LA) was 16 fold and the “C0 relative to in vitro PA-IC90” value ([1]; oral 30 mg once daily) was 27 fold. The C0 at 48 week ([1]; eight-week IM LA, read-out: geometric mean trough concentration (C0)) was 1460 ng/mL, the C0 at 48 week ([1]; four-week IM LA, read-out: geometric mean trough concentration (C0)) was 2580 ng/mL and the “Phenotypic resistance/sensitivity of subject's virus” value (shortened to “Phenotypic resistance/sensitivity”) [2] was “phenotypic resistance”. The “Effect of emergent integrase R269R/G mixture on susceptibility” value [3] was “did not decrease” and the IC90 (wild-type HIV-1; Human immunodeficiency virus 1, read-out: in vitro protein-adjusted 90% inhibitory concentration (PA-IC90)) was 0.166 µg/mL (≈ 0.41 µM).
For `C[C@@H]1CCO[C@H]2Cn3cc(C(=O)NCc4ccc(F)cc4F)c(=O)c(O)c3C(=O)N12` [dolutegravir], the “Phenotypic resistance/sensitivity” value [2] was “sensitive”.
In the case of `O=C1Nc2ccc(Cl)cc2[C@@](C#CC2CC2)(C(F)(F)F)O1` [efavirenz], the “Phenotypic resistance/sensitivity” value [2] is reported as “phenotypic resistance”.
In the case of `COc1cc2c(cc1Cc1cccc(Cl)c1F)c(=O)c(C(=O)O)cn2[C@H](CO)C(C)C` [elvitegravir], the “Phenotypic resistance/sensitivity” value [2] is reported as “phenotypic resistance”.
For `Cc1ccnc2c1NC(=O)c1cccnc1N2C1CC1` [nevirapine], the “Phenotypic resistance/sensitivity” value [2] was “phenotypic resistance”.
For `Cc1nnc(C(=O)NC(C)(C)c2nc(C(=O)NCc3ccc(F)cc3)c(O)c(=O)n2C)o1` [raltegravir], the “Phenotypic resistance/sensitivity” value [2] was “phenotypic resistance”.
In the case of `Cc1cc(/C=C/C#N)cc(C)c1Nc1ccnc(Nc2ccc(C#N)cc2)n1` [rilpivirine], the “C0 relative to in vitro PA-IC90” value ([1]; eight-week IM LA) is reported as 5 fold, the “C0 relative to in vitro PA-IC90” value ([1]; four-week IM LA) is reported as 8 fold and the C0 at 48 week ([1]; four-week IM LA, read-out: geometric mean C0) is reported as 94.6 ng/mL. The “Accumulation on repeated IM dosing” value ([1]; through 48 weeks of dosing, both IM arms) was “Accumulation of rilpivirine was observed”, the “Phenotypic resistance/sensitivity” value [2] was “phenotypic resistance” and the IC90 (wild-type HIV-1; Human immunodeficiency virus 1, read-out: in vitro PA-IC90) was 0.012 µg/mL (≈ 0.0327 µM).
